From ChEMBL document CHEMBL1201862, “PubChem BioAssay data set” (2004)
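Grown in 96-well plates, cells were treated for 48 hours with each compound at five concentrations. Insufficient inhibition: endpoint recorded as highest concentration tested. Abbreviation: GI50, concentration required for 50% inhibition of growth.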 Active and inactive are the calls of the source. Rule as the data show it: active = GI50 up to about 1.1 µM and inactive = higher.

Key:
Experiment in all cases: inhibition of tumour cell growth, NCI panel, 48 h
OVCAR-3 = test system: OVCAR-3
786-0 = test system: 786-0
RPMI-8226 = test system: RPMI-8226
RXF 393 = test system: RXF 393
Hs-578T = test system: Hs-578T
M14 = test system: M14
MDA-MB-231 = test system: MDA-MB-231
SK-MEL-2 = test system: SK-MEL-2
NCI-H23 = test system: NCI-H23
A498 = test system: A498
SK-OV-3 = test system: SK-OV-3
T47D = test system: T47D
A549 = test system: A549
HOP-92 = test system: HOP-92
BT-549 = test system: BT-549
KM-20L2 = test system: KM-20L2
DLD-1 = test system: DLD-1
XF498 = test system: XF498
HOP-18 = test system: HOP-18
DMS-114 = test system: DMS-114

SMILES | GI50 (OVCAR-3) | GI50 (786-0) | GI50 (RPMI-8226) | GI50 (RXF 393) | GI50 (Hs-578T) | GI50 (M14) | GI50 (MDA-MB-231) | GI50 (SK-MEL-2) | GI50 (NCI-H23) | GI50 (A498) | GI50 (SK-OV-3) | GI50 (T47D) | GI50 (A549) | GI50 (HOP-92) | GI50 (BT-549) | GI50 (KM-20L2) | GI50 (DLD-1) | GI50 (XF498) | GI50 (HOP-18) | GI50 (DMS-114)
CC(=O)N1C(=O)/C(=C\C(=O)c2ccc(Cl)cc2)c2ccccc21 | 10.1 µM (inactive) | 4.27 µM (inactive) | 24.4 µM (inactive) | 15.3 µM (inactive) | 19.5 µM (inactive) | 16.5 µM (inactive) | 13.9 µM (inactive) | 18.5 µM (inactive) | 15.6 µM (inactive) | 19.2 µM (inactive) | 22.8 µM (inactive) | 16.5 µM (inactive) | 13.5 µM (inactive) | 18.3 µM (inactive) | 4.19 µM (inactive) | – | – | – | – | –
CCC1CN2CCc3cc(OC)c(OC)cc3C2CC1CC1c2cc(OC)c(OC)cc2CCN1C(=O)C(N)Cc1ccccc1.[O-][Cl+3]([O-])([O-])O (stereo not drawn) | 4.16 µM (inactive) | – | 1.94 µM (inactive) | 1.65 µM (inactive) | – | 0.628 µM (active) | – | 2.23 µM (inactive) | 2.42 µM (inactive) | 3.24 µM (inactive) | 4.65 µM (inactive) | – | 1.6 µM (inactive) | 1.19 µM (inactive) | – | 1.07 µM (active) | 3.38 µM (inactive) | 1.34 µM (inactive) | – | –
CCOC(=O)c1csc(NC(=O)C(C)N2CCOCC2)n1 (stereo not drawn) | > 100 µM (inactive) | – | > 100 µM (inactive) | > 100 µM (inactive) | – | > 100 µM (inactive) | > 100 µM (inactive) | > 100 µM (inactive) | > 100 µM (inactive) | > 100 µM (inactive) | > 100 µM (inactive) | > 100 µM (inactive) | > 100 µM (inactive) | > 100 µM (inactive) | – | – | – | – | – | –
CO/N=C1/c2sccc2[C@H](NC(=O)C(Cc2ccccc2)NC(=O)OC(C)(C)C)[C@@H]1O (stereo partly drawn) | > 100 µM (inactive) | – | – | > 100 µM (inactive) | > 100 µM (inactive) | > 100 µM (inactive) | > 100 µM (inactive) | > 100 µM (inactive) | > 100 µM (inactive) | > 100 µM (inactive) | > 100 µM (inactive) | 63.2 µM (inactive) | > 100 µM (inactive) | > 100 µM (inactive) | > 100 µM (inactive) | – | – | – | – | –
N#CCCN(CCC#N)c1ccc(/C=C2\N=C(c3cc([N+](=O)[O-])ccc3Cl)N(S(=O)(=O)c3ccccc3)C2=O)cc1 | > 100 µM (inactive) | – | > 100 µM (inactive) | > 100 µM (inactive) | – | – | – | > 100 µM (inactive) | > 100 µM (inactive) | – | > 100 µM (inactive) | – | > 100 µM (inactive) | > 100 µM (inactive) | – | > 100 µM (inactive) | > 100 µM (inactive) | > 100 µM (inactive) | 37.7 µM (inactive) | > 100 µM (inactive)
Cc1cc(C)c2c(c1)CC1(Cc3c(C)ccc(C)c3C1=O)C2=O (stereo not drawn) | > 100 µM (inactive) | – | > 100 µM (inactive) | > 100 µM (inactive) | > 100 µM (inactive) | > 100 µM (inactive) | > 100 µM (inactive) | > 100 µM (inactive) | – | > 100 µM (inactive) | – | > 100 µM (inactive) | > 100 µM (inactive) | > 100 µM (inactive) | > 100 µM (inactive) | – | – | – | – | –
COc1cc(O)c(Cc2ccccc2O)c(O)c1C(=O)CCc1ccccc1 [UVARETIN] | 4.58 µM (inactive) | – | 2.44 µM (inactive) | 6.07 µM (inactive) | – | – | – | 4.71 µM (inactive) | 4.17 µM (inactive) | 1.48 µM (inactive) | 6.15 µM (inactive) | – | 5.92 µM (inactive) | 3.99 µM (inactive) | – | 7.35 µM (inactive) | 7.33 µM (inactive) | 3.21 µM (inactive) | 0.713 µM (active) | 4.09 µM (inactive)
CC(C)(CO)NC(=O)c1cccc(C(=O)NC(C)(C)CO)c1Br | – | > 100 µM (inactive) | > 100 µM (inactive) | 7.83 µM (inactive) | – | > 100 µM (inactive) | > 100 µM (inactive) | > 100 µM (inactive) | > 100 µM (inactive) | – | – | > 100 µM (inactive) | > 100 µM (inactive) | > 100 µM (inactive) | > 100 µM (inactive) | – | – | – | – | –
CC1(C)O[C@H]2OC(CO)C(OS(C)(=O)=O)[C@H]2O1 (stereo partly drawn) | > 100 µM (inactive) | > 100 µM (inactive) | > 100 µM (inactive) | – | > 100 µM (inactive) | > 100 µM (inactive) | > 100 µM (inactive) | > 100 µM (inactive) | > 100 µM (inactive) | > 100 µM (inactive) | – | > 100 µM (inactive) | > 100 µM (inactive) | > 100 µM (inactive) | – | – | – | – | – | –
CC(=O)C(=O)NC1/C=C(C)\C=C/C(O)C/C=C(C)\C=C/C(O)CC2OC(=O)C1(C)C(=O)C2C (stereo not drawn) | > 100 µM (inactive) | – | > 55.1 µM (inactive) | > 100 µM (inactive) | – | – | – | > 100 µM (inactive) | > 100 µM (inactive) | > 100 µM (inactive) | > 100 µM (inactive) | – | > 100 µM (inactive) | > 100 µM (inactive) | – | > 100 µM (inactive) | > 100 µM (inactive) | – | > 100 µM (inactive) | > 100 µM (inactive)
